Reference: the supplement of paper PMC10307832

Tests used:
Experiment in all cases: relative viability (nuclei count vs DMSO), 5 days (fraction); higher = more cells survive
LU99A = test system: LU99A
Summary of the method: (§1)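 Each reported value is a median over duplicate plates. It expresses relative viability: treated-well nuclei count divided by vehicle-well nuclei count. Lung cancer cell lines in 1536-well plates were dosed by pin tool a day after seeding, alone with one drug or with a fixed anchor-drug dose plus five library-drug doses (not always all listed) in √10 steps, and nuclei were counted after 5 days.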

EPLC-272H = test system: EPLC-272H
Summary of the method: as §1

NCI-H2085 = test system: NCI-H2085
Summary of the method: as §1

LC-2-ad = test system: LC-2-ad
Summary of the method: as §1

NCI-H460 = test system: NCI-H460
Summary of the method: as §1

NCI-H1793 = test system: NCI-H1793
Summary of the method: as §1

HCC-78 = test system: HCC-78
Summary of the method: as §1

SW 900 = test system: SW 900
Summary of the method: as §1

LXF-289 = test system: LXF-289
Summary of the method: as §1

NCI-H1915 = test system: NCI-H1915
Summary of the method: as §1

NCI-H1944 = test system: NCI-H1944
Summary of the method: as §1

NCI-H1666 = test system: NCI-H1666
Summary of the method: as §1

SK-LU-1 = test system: SK-LU-1
Summary of the method: as §1

NCI-H2009 = test system: NCI-H2009
Summary of the method: as §1

NCI-H358 = test system: NCI-H358
Summary of the method: as §1

NCI-H2170 = test system: NCI-H2170
Summary of the method: as §1

HOP-62 = test system: HOP-62
Summary of the method: as §1

COR-L 105 = test system: COR-L 105
Summary of the method: as §1

UMC-11 = test system: UMC-11
Summary of the method: as §1

HCC-366 = test system: HCC-366
Summary of the method: as §1

A-427 = test system: A-427
Summary of the method: as §1

Cc1sc2c(c1C)C(c1ccc(Cl)cc1)=N[C@@H](CC(=O)OC(C)(C)C)c1nnc(C)n1-2 [JQ1] + Cc1cc(Nc2cc(N3CCN(C)CC3)nc(Sc3ccc(NC(=O)C4CC4)cc3)n2)n[nH]1 [Tozasertib] (partner 0.1 µM) showed a relative viability (LU99A; first compound 0.04 µM) of 0.277, a relative viability (LU99A; first compound 0.1265 µM) of 0.304 and a relative viability (LU99A; first compound 0.4 µM) of 0.237. The relative viability (LU99A; first compound 1.265 µM) was 0.188, the relative viability (LU99A; first compound 4 µM) was 0.159 and the relative viability (EPLC-272H; first compound 0.04 µM) was 0.418. It also gave a relative viability (EPLC-272H; first compound 0.1265 µM) of 0.24, a relative viability (EPLC-272H; first compound 0.4 µM) of 0.373 and a relative viability (EPLC-272H; first compound 1.265 µM) of 0.257. For the same compound, the relative viability (EPLC-272H; first compound 4 µM) was 0.258, the relative viability (NCI-H2085; first compound 0.04 µM) was 0.761 and the relative viability (NCI-H2085; first compound 0.1265 µM) was 0.727. The relative viability (NCI-H2085; first compound 0.4 µM) was 0.63, the relative viability (NCI-H2085; first compound 1.265 µM) was 0.414 and the relative viability (NCI-H2085; first compound 4 µM) was 0.328. It also gave a relative viability (LC-2-ad; first compound 0.04 µM) of 0.45, a relative viability (LC-2-ad; first compound 0.1265 µM) of 0.351 and a relative viability (LC-2-ad; first compound 0.4 µM) of 0.351. For the same compound, the relative viability (LC-2-ad; first compound 1.265 µM) was 0.297, the relative viability (LC-2-ad; first compound 4 µM) was 0.232 and the relative viability (NCI-H460; first compound 0.04 µM) was 0.402. The relative viability (NCI-H460; first compound 0.4 µM) was 0.119, the relative viability (NCI-H460; first compound 1.265 µM) was 0.0684 and the relative viability (NCI-H460; first compound 4 µM) was 0.0339. It also gave a relative viability (NCI-H1793; first compound 0.04 µM) of 0.355, a relative viability (NCI-H1793; first compound 0.1265 µM) of 0.316 and a relative viability (NCI-H1793; first compound 0.4 µM) of 0.282. For the same compound, the relative viability (NCI-H1793; first compound 1.265 µM) was 0.185, the relative viability (NCI-H1793; first compound 4 µM) was 0.226 and the relative viability (HCC-78; first compound 0.04 µM) was 0.474. For the same compound, the relative viability (HCC-78; first compound 0.1265 µM) was 0.389, the relative viability (HCC-78; first compound 0.4 µM) was 0.4 and the relative viability (HCC-78; first compound 1.265 µM) was 0.299. It also gave a relative viability (HCC-78; first compound 4 µM) of 0.302, a relative viability (SW 900; first compound 0.04 µM) of 0.647 and a relative viability (SW 900; first compound 0.1265 µM) of 0.641. The relative viability (SW 900; first compound 0.4 µM) was 0.421, the relative viability (SW 900; first compound 1.265 µM) was 0.297 and the relative viability (SW 900; first compound 4 µM) was 0.227. For the same compound, the relative viability (LXF-289; first compound 0.04 µM) was 0.171, the relative viability (LXF-289; first compound 0.1265 µM) was 0.134 and the relative viability (LXF-289; first compound 0.4 µM) was 0.0871. The relative viability (LXF-289; first compound 1.265 µM) was 0.0699, the relative viability (LXF-289; first compound 4 µM) was 0.0528 and the relative viability (NCI-H1915; first compound 0.04 µM) was 0.439. The relative viability (NCI-H1915; first compound 0.1265 µM) was 0.344, the relative viability (NCI-H1915; first compound 0.4 µM) was 0.325 and the relative viability (NCI-H1915; first compound 1.265 µM) was 0.218. The relative viability (NCI-H1915; first compound 4 µM) was 0.15, the relative viability (NCI-H1944; first compound 0.04 µM) was 0.231 and the relative viability (NCI-H1944; first compound 0.1265 µM) was 0.225. For the same compound, the relative viability (NCI-H1944; first compound 0.4 µM) was 0.227, the relative viability (NCI-H1944; first compound 1.265 µM) was 0.208 and the relative viability (NCI-H1944; first compound 4 µM) was 0.185. The relative viability (NCI-H1666; first compound 0.04 µM) was 0.569, the relative viability (NCI-H1666; first compound 0.1265 µM) was 0.534 and the relative viability (NCI-H1666; first compound 0.4 µM) was 0.484. For the same compound, the relative viability (NCI-H1666; first compound 1.265 µM) was 0.36, the relative viability (NCI-H1666; first compound 4 µM) was 0.354 and the relative viability (SK-LU-1; first compound 0.04 µM) was 0.282. For the same compound, the relative viability (SK-LU-1; first compound 0.1265 µM) was 0.27, the relative viability (SK-LU-1; first compound 0.4 µM) was 0.249 and the relative viability (SK-LU-1; first compound 1.265 µM) was 0.0708. The relative viability (SK-LU-1; first compound 4 µM) was 0.0741, the relative viability (NCI-H2009; first compound 0.04 µM) was 0.697 and the relative viability (NCI-H2009; first compound 0.1265 µM) was 0.414. For the same compound, the relative viability (NCI-H2009; first compound 0.4 µM) was 0.385, the relative viability (NCI-H2009; first compound 1.265 µM) was 0.199 and the relative viability (NCI-H2009; first compound 4 µM) was 0.187. For the same compound, the relative viability (NCI-H358; first compound 0.04 µM) was 0.102, the relative viability (NCI-H358; first compound 0.1265 µM) was 0.102 and the relative viability (NCI-H358; first compound 0.4 µM) was 0.124. It also gave a relative viability (NCI-H358; first compound 1.265 µM) of 0.107, a relative viability (NCI-H358; first compound 4 µM) of 0.0861 and a relative viability (NCI-H2170; first compound 0.04 µM) of 0.711. For the same compound, the relative viability (NCI-H2170; first compound 0.1265 µM) was 0.64, the relative viability (NCI-H2170; first compound 0.4 µM) was 0.467 and the relative viability (NCI-H2170; first compound 1.265 µM) was 0.352. It also gave a relative viability (NCI-H2170; first compound 4 µM) of 0.194, a relative viability (HOP-62; first compound 0.04 µM) of 0.361 and a relative viability (HOP-62; first compound 0.1265 µM) of 0.305. The relative viability (HOP-62; first compound 0.4 µM) was 0.192, the relative viability (HOP-62; first compound 1.265 µM) was 0.122 and the relative viability (HOP-62; first compound 4 µM) was 0.122. For the same compound, the relative viability (COR-L 105; first compound 0.04 µM) was 0.359, the relative viability (COR-L 105; first compound 0.1265 µM) was 0.315 and the relative viability (COR-L 105; first compound 0.4 µM) was 0.297. It also gave a relative viability (COR-L 105; first compound 1.265 µM) of 0.235, a relative viability (COR-L 105; first compound 4 µM) of 0.112 and a relative viability (UMC-11; first compound 0.04 µM) of 0.214. It also gave a relative viability (UMC-11; first compound 0.1265 µM) of 0.192, a relative viability (UMC-11; first compound 0.4 µM) of 0.173 and a relative viability (UMC-11; first compound 1.265 µM) of 0.175. The relative viability (UMC-11; first compound 4 µM) was 0.162, the relative viability (HCC-366; first compound 0.04 µM) was 0.112 and the relative viability (HCC-366; first compound 0.4 µM) was 0.0922. For the same compound, the relative viability (HCC-366; first compound 1.265 µM) was 0.0515, the relative viability (HCC-366; first compound 4 µM) was 0.0708 and the relative viability (A-427; first compound 0.04 µM) was 0.195. The relative viability (A-427; first compound 0.1265 µM) was 0.188, the relative viability (A-427; first compound 0.4 µM) was 0.173 and the relative viability (A-427; first compound 1.265 µM) was 0.131. For the same compound, the relative viability (A-427; first compound 4 µM) was 0.125.
